These results are taken from PMC12239085, “Silver(I) Ions Bridging Oxadiazole-2-thione Derivatives with Mitochondriotropic Agents: A Promising Strategy for Potent Anticancer Chemotherapy” (Inorganic Chemistry, 2025).

Data set [1] has as its system normal human fetal lung fibroblast (MRC-5) cells. As to the kind of experiment: SRB toxicity assay, MRC-5. In kind it is cell-based. Conditions: 48 h incubation. As to the method: (§1) Stock solutions of compounds 1a–5a and 1–5 (0.01 M) in DMSO were freshly prepared and subsequently diluted with cell culture media to appropriate concentrations for various biological experiments. These included the assessment of cell viability using the SRB assay, micronucleus testing, cell morphology studies, cell cycle arrest, AO/EB staining, and mitochondrial membrane permeabilization tests. For CT-DNA binding studies, experiments were conducted in DMSO/buffer solutions. All biological experiments were performed in triplicate or more.
(§2) Stock solutions of 1a–5a and 1–5 (0.01 M) were dissolved in DMSO and subsequently diluted with cell culture medium to the desired concentrations (0.5–30 μM). MCF-7, MDA MB-231, and MRC-5 cells were plated in 96-well flat-bottom microplates at various densities: 6000, 8000, and 2000 cells per well, respectively. The cells were incubated for 24 h at 37 °C and then exposed to 1a–5a and 1–5 for 48 h. ,–
(§3) Cytotoxicity was evaluated using the SRB colorimetric assay at λ = 568 nm, with cell survival percentages calculated relative to the untreated control cells. Detailed information on the SRB assay procedure can be found in the previous publication. ,–

A further data set concerns MRC-5 cells. As to the kind of experiment: In vitro micronucleus (MN) assay. It is filed as cell-based, human. The following applies: for Percentage of MN: IC50 values, control 2.9 ± 0.2. The method, then: MRC-5 cells were seeded at a density of 2 × 10^4 cells/well onto glass coverslips, which were placed in six-well plates containing 3 mL of cell culture medium and incubated for 24 h. […] After exposure, the coverslips were washed three times with PBS and treated with a hypotonic solution (75 mM KCl) for 10 min at room temperature. The hypotonized cells were fixed with at least three changes of a 1/3 acetic acid/methanol solution. Following fixation, the coverslips were washed with cold methanol containing 1% acetic acid. Acridine orange staining (50 μg/mL) was applied for 15 min at 37 °C, after which the coverslips were rinsed three times with PBS to remove any excess stain. The number of micronucleated cells per 1000 cells was then counted. ,– ,

Data set [2] concerns MCF-7 human breast adenocarcinoma cells (hormone-dependent). As to the kind of experiment: SRB antiproliferative assay, MCF-7. It is filed as cell-based. The following applies: for IC50: SRB assay, 48 h incubation; for pIC50 MCF-7: p(IC50)= -Log(IC50), Table S4, this study. As to the method:
as §1, §2, §3

Data set [3] has as its system MDA-MB-231 human breast adenocarcinoma cells (hormone-independent). The data set can be described thus: SRB antiproliferative assay, MDA-MB-231. In kind it is cell-based. Conditions: 48 h incubation. The method, then: as §1, §2, §3
Data set [4] has as its system MCF-7 cells. The data set can be described thus: Cell cycle arrest, flow cytometry. Conditions: for cell population in sub-G1 phase / cell population in S phase / cell population in G0/G1 phase: MCF-7, IC50 values, 48 h; for cell population in sub-G1 phase: untreated 5.1%; for cell population in S phase: untreated 9.4%; for cell population in G0/G1 phase: untreated 38.8%. It is filed as cell-based, human. As to the method:
The MCF-7 cells were seeded into a 24-well plate (70,000 cells per well) and cultured at 37 °C for 24 h. […] For each sample, 10,000 events were recorded. The resulting DNA histograms were drawn and quantified using the FlowJo software (version FlowJo X 10.0.7r2). This assay was performed as reported previously. ,–

Another data set concerns calf thymus (CT)-DNA. The data set can be described thus: CT-DNA-EB fluorescence displacement. In kind it is binding. Conditions: for quenching of fluorescence intensity of EB-DNA at 588 nm: EB 2.3 μM, CT-DNA 26 μM, complex 0–600 μM; for apparent binding constant K app: EB displacement. As to the method:
The DNA-complex binding properties can also be studied by fluorescent spectroscopy can also be studied by fluorescent spectroscopy. ,– EB emits intense fluorescence in the presence of DNA due to its strong intercalation between adjacent DNA base pairs. As EB binds to DNA […], its displacement by a compound could indicate either intercalative binding or minor groove interaction, among other possibilities. ,– The emission spectra of the CT-DNA-EB complex were recorded in both the absence and presence of compounds 1–5 (Figure S29). The fluorescence intensity at λmax ^em = 588 nm was quenched by 60.2 (1). 58.5 (2), 62.0 (3), 61.9 (4) and 61.6 (5) %, for 1–5 respectively, compared to the initial fluorescence intensity of the EB-DNA solution.
The fluorescence spectroscopy method using EB was employed to determine the relative DNA binding properties of complexes 1–5 into CT-DNA. The emission spectra at 588 nm of EB (2.3 μM) solutions which contain CT-DNA (26 μM) in the absence or presence of various concentrations of complexes 1–5 (0–600 μM) were recorded upon their excitation at 527 nm. ,− The apparent binding constant (K app) was calculated using the equation: KEB*[EB]=Kapp*[DNA binder] where [DNA binder] is the concentration of the complex at a 50% reduction of the fluorescence, K EB= 10^7 M^–1, and [EB] = 2.3 μM. ,−
The concentration of the drug required to achieve a 50% reduction in fluorescence is determined from the plot of I o/I versus the concentration of the complex [DNA binder], Io/I=1+KSV*[DNA binder] where I o and I represent the fluorescence intensities of CT-DNA in the absence and presence of complexes 1–5, respectively. K SV is the Stern–Volmer dynamic quenching constant and [DNA binder] is the total concentration of the quencher (complexes 1–5). ,−

In data set [5] the test system is MCF-7 cells. The data set can be described thus: AO/EB staining detection of apoptotic cells. In kind it is cell-based, human. Conditions: 48 h; for percentage of apoptotic cells: MCF-7, IC50 values, untreated 11.7 ± 2.8%. As to the method: Apoptotic MCF-7 cells were quantified and characterized using the AO/EB staining assay under fluorescence microscopy, and the results were correlated with previously observed morphological changes in the cells. The type of cell death was evaluated after incubation with complexes 1–5 for 48 h. This assay detects nuclear changes based on differences in membrane integrity between live and apoptotic cells. The fluorescent EB dye stains red only those cells that have lost membrane integrity, while the fluorescent AO dye stains both live and dead cells green. , Untreated MCF-7 cells display green radiation emitting nuclei. The percentage of apoptosis in untreated cells was calculated as 11.7 ± 2.8%. In apoptotic cells, varying degrees of changes are observed. Early stages of apoptosis are indicated by greenish-yellow fluorescent nuclei or green-yellow fragments, while late stages are characterized by orange fluorescence or the presence of orange fragments.
The MCF-7 cells were seeded into a 24-well plate (70,000 cells per well) and cultured at 37 °C for 24 h. […] Control and treated cells were collected after 48 h, the cells were harvested, washed twice with PBS and centrifuged. Twenty-five μL of cell suspension in PBS were incubated with 50 μg/mL AO and 50 μg/mL EB solution. Then, the cells were mixed gently and 10 μL of cells in suspension was placed on a glass slide and a coverslip was placed over it. At random, 300 cells were immediately observed in a fluorescent microscope (Optika inverted fluorescence microscope) and examined at ×60 magnification. ,

The structures appear in SMILES notation. Values joined by “and” are separate entries in the source; they are usually repeats but may differ in a detail not shown here. Equal values may be shown once. Read-outs that look alike come from different tables or passages of the source.

In data set [1], `c1ccc(-c2nnc([S][Ag]([PH](c3ccccc3)(c3ccccc3)c3ccccc3)([PH](c3ccccc3)(c3ccccc3)c3ccccc3)[PH](c3ccccc3)(c3ccccc3)c3ccccc3)o2)cc1` [compound 1] came in with an IC50 of 3.77 ± 0.16 µM. Also, in the data set with MRC-5 cells, the “Relative ratio of MN in respect to untreated cells” value (from here on “Relative ratio of MN”) is 1.38 fold. For the same compound, in the data set on MRC-5 cells (48 h), the “Relative ratio of MN” value is 1.4 and 1.38; the “Percentage of MN” value is 4.0 ± 0.6%. Moreover, in data set [2], the IC50 stood at 2.03 ± 0.09 µM and the “pIC50 MCF-7” value stood at 5.7. 4.09 ± 0.17 µM corresponded to half-maximal inhibition in data set [3] (IC50). For the same compound, in the data set on MCF-7 cells [4], the “Relative rate of MCF-7 cells in sub-G1 phase compared to untreated cells” value (shortened to “Relative rate of MCF-7 cells”) is 2.8, the “cell population in sub-G1 phase” value came out at 14.5% and the “cell population in S phase” value came to 15.4%. Further, in the data set on calf thymus (CT)-DNA, the “quenching of fluorescence intensity of EB-DNA at 588 nm” value (“quenching” below) worked out at 60.2% and the “apparent binding constant K app” value was 6.3 × 10^4 M^–1. Moreover, in the data set on MCF-7 cells [5], the “relative rate of apoptotic MCF-7 cells in respect to untreated control” value (shortened to “relative rate of apoptotic MCF-7 cells”) was 5.13 and 5.1; the “percentage of apoptotic cells” value is reported as 60.0 ± 5.2%.
`Fc1ccccc1-c1nnc([S][Ag]([PH](c2ccccc2)(c2ccccc2)c2ccccc2)([PH](c2ccccc2)(c2ccccc2)c2ccccc2)[PH](c2ccccc2)(c2ccccc2)c2ccccc2)o1` [compound 2] yielded an IC50 in data set [1] of 3.12 ± 0.11 µM. The “Relative ratio of MN” value in the data set on MRC-5 cells came to 1.24 fold. Moreover, in the data set on MRC-5 cells (48 h), the “Relative ratio of MN” value is 1.2 and 1.24; the “Percentage of MN” value was determined as 3.6 ± 0.5%. For the same compound, in data set [2], the IC50 came out at 2.5 ± 0.19 µM and the “pIC50 MCF-7” value worked out at 5.6. In data set [3], the IC50 was found to be 3.9 ± 0.14 µM. Besides, in the data set on MCF-7 cells [4], the “Relative rate of MCF-7 cells” value was 1.7, the “cell population in sub-G1 phase” value came out at 8.9% and the “cell population in G0/G1 phase” value is 76.9%. In the data set with calf thymus (CT)-DNA, the “quenching” value is on record as 58.5% and the “apparent binding constant K app” value was 6.7 × 10^4 M^–1. In the data set on MCF-7 cells [5], the “relative rate of apoptotic MCF-7 cells” value came to 5.8 and the “percentage of apoptotic cells” value was 64.8 ± 2.5%.
For `Fc1ccc(-c2nnc([S][Ag]([PH](c3ccccc3)(c3ccccc3)c3ccccc3)([PH](c3ccccc3)(c3ccccc3)c3ccccc3)[PH](c3ccccc3)(c3ccccc3)c3ccccc3)o2)cc1` [compound 3], half-maximal inhibition in data set [1] (IC50) was put at 2.72 ± 0.19 µM. Besides, the “Relative ratio of MN” value with MRC-5 cells is 1.31 fold. Also, in the data set with MRC-5 cells (48 h), the “Relative ratio of MN” value was 1.3 and 1.31; the “Percentage of MN” value is recorded as 3.8 ± 0.2%. For the same compound, in data set [2], the IC50 was found to be 2.15 ± 0.16 µM and the “pIC50 MCF-7” value came to 5.7. Also, the 50% inhibitory concentration (IC50) in data set [3] is 2.52 ± 0.07 µM. For the same compound, in the data set with MCF-7 cells [4], the “Relative rate of MCF-7 cells” value is 2.5, the “cell population in sub-G1 phase” value is listed as 12.8% and the “cell population in G0/G1 phase” value is on record as 72.0%. Moreover, in the data set on calf thymus (CT)-DNA, the “quenching” value is on record as 62.0% and the “apparent binding constant K app” value is given as 7.0 × 10^4 M^–1. Besides, in the data set with MCF-7 cells [5], the “relative rate of apoptotic MCF-7 cells” value is 4.01 and 4.0; the “percentage of apoptotic cells” value is on record as 46.9 ± 8.0%.
In data set [1], `Clc1ccccc1-c1nnc([S][Ag]([PH](c2ccccc2)(c2ccccc2)c2ccccc2)([PH](c2ccccc2)(c2ccccc2)c2ccccc2)[PH](c2ccccc2)(c2ccccc2)c2ccccc2)o1` [compound 4] registered an IC50 of 4.07 ± 0.24 µM. In addition, the “Relative ratio of MN” value with MRC-5 cells stood at 1.69 fold. In the data set with MRC-5 cells (48 h), the “Relative ratio of MN” value is 1.7 and 1.69; the “Percentage of MN” value is listed as 4.9 ± 0.5%. Besides, in data set [2], the IC50 was 3 ± 0.15 µM and the “pIC50 MCF-7” value is 5.5. In addition, in data set [3], the IC50 came out at 4.27 ± 0.15 µM. In the data set with MCF-7 cells [4], the “Relative rate of MCF-7 cells” value worked out at 2.6; the “fold higher increase in MCF-7 sub-G1 population compared to the other compounds and cisplatin” value is on record as 3 fold; the “cell population in S phase” value stood at 26.5%. Also, in the data set with calf thymus (CT)-DNA, the “quenching” value came out at 61.9% and the “apparent binding constant K app” value was 6.9 × 10^4 M^–1. In addition, in the data set with MCF-7 cells [5], the “relative rate of apoptotic MCF-7 cells” value is 4.03 and 4.0; the “percentage of apoptotic cells” value is recorded as 47.2 ± 5.6%.
In data set [1], `Clc1cccc(-c2nnc([S][Ag]([PH](c3ccccc3)(c3ccccc3)c3ccccc3)([PH](c3ccccc3)(c3ccccc3)c3ccccc3)[PH](c3ccccc3)(c3ccccc3)c3ccccc3)o2)c1` [compound 5] showed a half-inhibitory concentration (IC50) of 2.89 ± 0.08 µM. Besides, in the data set on MRC-5 cells (48 h), the “Relative ratio of MN” value was 2.3 and 2.34; the “Percentage of MN” value turned out to be 6.8 ± 1.5%. Moreover, in data set [2], the IC50 was 1.69 ± 0.08 µM and the “pIC50 MCF-7” value is on record as 5.8. In data set [3], this compound yielded a concentration for half-maximal inhibition (IC50) of 3.55 ± 0.19 µM. In addition, in the data set with MCF-7 cells [4], the “Relative rate of MCF-7 cells” value amounted to 8.1, the “cell population in sub-G1 phase” value came out at 41.1% and the “cell population in S phase” value came to 48.3%. In the data set on calf thymus (CT)-DNA, the “quenching” value came to 61.6% and the “apparent binding constant K app” value is given as 6.5 × 10^4 M^–1. In the data set with MCF-7 cells [5], the “relative rate of apoptotic MCF-7 cells” value was found to be 5.5 and the “percentage of apoptotic cells” value is 64.3 ± 8.2%.
